Among the data in a melting point compilation (Tetko et al.) are melting point values, retold here.

For orientation: melting point means the temperature, or range, at which the solid turns liquid.

`Nc1cccnc1Nc1ccc2c(c1)C(=O)NC2=O` showed a melting point of 269 to 271 °C.

As to `CCNS(=O)(=O)c1ccc(/C=C/C(=O)O)cc1`, the melting point is 248 to 250 °C.

On to `C=CCNc1ncc(C(=O)O)s1`, for which the melting point is 169 to 171 °C.

Turning to `CN(C)C(=O)c1cc(F)c(NN)c(F)c1`, the melting point is 74 to 76 °C.

As to `Brc1cnc2nc[nH]c2c1`, the melting point fell in the range of 217 to 219 °C.

With `Nc1cc(S(=O)(=O)N2CCCC2)ccc1O`, the melting point fell in the range of 163 to 165 °C.

Compound `CC(=O)Nc1cccc(NC(=O)C2CCNCC2)c1` had a melting point of 199 to 201 °C.

The compound `O=C(O)Cc1ccc(NC(=O)C2CC2)cc1` returned a melting point of 189 to 191 °C.

For the compound `O=c1[nH]nc2cnccn12`, the melting point is 229 to 231 °C.

The compound `CC(C)(Sc1ccc(Br)cc1)C(=O)O` came in with a melting point of 109 to 111 °C.

As to `CC(Sc1nnnn1C1CC1)C(=O)O` (stereo not drawn), the melting point fell in the range of 116 to 118 °C.

Consider `Cc1cc(F)cc2c(Cl)c(C#N)cnc12`, for which the melting point was 137 to 139 °C.

With `CC(C)C(Br)C(=O)Nc1ccc2c(c1)CCC2` (stereo not drawn), the melting point lay within 124 to 126 °C.

On to `Cc1ccccc1NC(=O)CCl`, for which the melting point is 75 to 77 °C.

In turn, `O=C(O)c1c[nH]nc1-c1ccc(Cl)cc1` yielded a melting point of 276 to 278 °C.

As to `Brc1cccc2[nH]ncc12`, the melting point was in the range of 165 to 167 °C.

`FC(F)(F)Cn1cnnc1S` gave a melting point of 93 to 95 °C.

`O=C(O)C1CC2CCCC(C1)C2=O` (stereo not drawn) displayed a melting point of 129 to 131 °C.

With `O=Cc1[nH]nnc1-c1ccccc1`, the melting point is 169 to 171 °C.

`CN(C)S(=O)(=O)c1ccc2nc(Cl)c(Cl)nc2c1`: the melting point was in the range of 139 to 141 °C.

The compound `Cc1ccc(C(C)C(O)C(=O)O)cc1` (stereo not drawn) registered a melting point of 111 to 113 °C.

`CC(C)(C)c1cnc(S)s1`: the melting point was in the range of 115 to 117 °C.

`Sc1nnc(-c2ccccc2)n1-c1ccccc1` yielded a melting point of 292 to 294 °C.

In turn, `Cc1ccc(-c2nc(N)sc2CC(=O)O)cc1` had a melting point of 218 to 222 °C.

`CC(C)(Oc1cccc(Cl)c1)C(=O)O` gave a melting point of 59 to 61 °C.

`O=[N+]([O-])c1ccc(O)nc1Cl`: the melting point was 199 to 201 °C.

`NC(=O)N1CCN2C(=O)NC(=O)C2C1` (stereo not drawn) gave a melting point of 250 to 252 °C.

On to `Cc1ccc(-c2nc(C=O)co2)cc1`, for which the melting point was 92 to 94 °C.

The compound `COC(=O)c1cc2c(nc1N)CCCC2` gave a melting point of 126 to 128 °C.

As to `O=C1COc2ncc(Br)cc2N1`, the melting point lay within 256 to 258 °C.

As to `O=C(Nc1ccc(O)cc1C(=O)O)OCc1ccccc1`, the melting point was in the range of 176 to 178 °C.

As to `CCn1cnnc1-c1ccc(C(=O)O)cc1`, the melting point lay in the range of 211 to 213 °C.

Compound `O=C(Nc1cccc(O)c1)c1ccsc1` yielded a melting point of 165 to 167 °C.

The compound `O=C(O)c1ccc(Oc2ccc(Cl)cc2)c(Cl)c1` gave a melting point of 167 to 169 °C.

On to `Cc1ccc(C(=O)Cc2ccccn2)cc1`, for which the melting point fell in the range of 73 to 75 °C.

Compound `CCOc1cc(/C=C/C(=O)O)ccc1OC` displayed a melting point of 164 to 166 °C.

Turning to `CC1(C)CC(C=Cc2ccccn2)=Cc2c1sc(N)c2C#N`, the melting point fell in the range of 200 to 202 °C.

In turn, `O=C(CCl)NC(=O)NC1CCS(=O)(=O)C1` (stereo not drawn) showed a melting point of 173 to 175 °C.

In the case of `O=C(O)C1CCCN1C(=O)c1ccc([N+](=O)[O-])o1` (stereo not drawn), the melting point lay within 154 to 156 °C.

Compound `O=C(NCCc1ccccc1)n1ccnc1` came in with a melting point of 103 to 105 °C.

On to `O=C(O)CC1NC(=O)N(c2ccc(F)cc2)C1=O` (stereo not drawn), for which the melting point lay within 224 to 226 °C.

`COC(=O)C(O)c1cccc(O)c1` (stereo not drawn) displayed a melting point of 124 to 126 °C.

As for `O=C(Nc1cnccn1)c1ccc(Br)cc1`, the melting point lay in the range of 195 to 197 °C.

Regarding `CCOC(=O)c1cc(Br)ccc1N`, the melting point was 79 to 81 °C.

In turn, `CCSCc1ccc(C(=O)O)cc1` displayed a melting point of 123 to 125 °C.

As for `Clc1ncnc2c(Br)cccc12`, the melting point was in the range of 159 to 161 °C.

`CC1CCN(C(=O)c2ccc(N)cc2)CC1` yielded a melting point of 118 to 120 °C.

Turning to `Cc1cc2cc(Cl)cc(Cl)c2[nH]1`, the melting point was in the range of 49 to 51 °C.

For the compound `Nc1cccc(C(=O)N2CCSCC2)c1`, the melting point lay within 114 to 116 °C.

The compound `COc1cc2nc(N)sc2cc1OC` showed a melting point of 224 to 226 °C.

Consider `COC(=O)Nc1cccc(O)c1`, for which the melting point lay within 95 to 97 °C.

Compound `Cn1c(CO)nc2cc(C(F)(F)F)ccc21` yielded a melting point of 170 to 172 °C.

Consider `O=Cc1ccc(Br)nc1`, for which the melting point fell in the range of 104 to 110 °C.

Consider `O=Cc1cn(Cc2ccccc2)nc1-c1cccs1`, for which the melting point was in the range of 90 to 91 °C.

`COc1ccc(S(=O)(=O)Cl)cc1C(=O)O` yielded a melting point of 142 to 144 °C.

With `O=C1NC(=O)C(c2ccccc2OC(F)(F)F)N1` (stereo not drawn), the melting point was 156 to 158 °C.

For the compound `OC(CNCc1ccccc1)c1cccs1` (stereo not drawn), the melting point was in the range of 95 to 97 °C.

As to `CC(Cl)c1ncc(-c2ccccc2)o1` (stereo not drawn), the melting point was in the range of 54 to 56 °C.

For the compound `O=C(O)C=CSCc1ccco1`, the melting point lay within 119 to 121 °C.

For the compound `Cc1ccc(S(=O)(=O)NCCCC(=O)O)cc1C`, the melting point was 111 to 113 °C.

Consider `CC(C)C(C(=O)O)N1CCCS1(=O)=O` (stereo not drawn), for which the melting point was in the range of 97 to 99 °C.

`COc1cc(C)c(S(=O)(=O)Cl)cc1C` displayed a melting point of 98 to 100 °C.

In turn, `c1ccc(Cn2ccnc2)nc1` gave a melting point of 63 to 65 °C.

The compound `CCN(CC)S(=O)(=O)c1ccc(N2CCNCC2)c([N+](=O)[O-])c1` displayed a melting point of 131 to 133 °C.

Consider `O=C(c1[nH]nc2ccccc12)N1CCNCC1`, for which the melting point lay in the range of 179 to 181 °C.

Turning to `CCN(CC)C(=O)Cc1ccc(N)cc1`, the melting point is 87 to 89 °C.

`O=C(CCl)c1cc([N+](=O)[O-])c[nH]1` yielded a melting point of 199 to 201 °C.

`O=C(O)c1ccc(Oc2ccc(Cl)cc2)c(F)c1` had a melting point of 128 to 130 °C.

The compound `NC1(C(=O)O)CCCCC1` returned a melting point of 300 to 302 °C.

As to `COc1ccc(C(=O)O)c(Cl)c1`, the melting point lay within 209 to 211 °C.

In the case of `COc1cc2ccncc2cc1O`, the melting point was 159 to 161 °C.

The compound `CC(=O)N1CCCc2cc(C(=O)O)ccc21` returned a melting point of 184 to 186 °C.

Turning to `O=C(O)c1cc(N2CCCC2=O)ccc1Cl`, the melting point was in the range of 159 to 161 °C.

For `CC(=O)c1ccc2c(c1)CCC(=O)N2`, the melting point is 162 to 164 °C.

`Cc1c(N)cccc1-c1nc2cc(F)ccc2n1C1CC1` yielded a melting point of 131 to 133 °C.

In turn, `Cn1cc(-c2cccc(CN)c2)cn1` displayed a melting point of 69 to 71 °C.

Turning to `Cc1ccc(Oc2ccc(N)cc2)nn1`, the melting point lay within 114 to 116 °C.

Compound `O=C(CCl)NCc1ccc(COc2ccccc2)cc1` had a melting point of 123 to 125 °C.

`Nc1ccc(C(=O)N2CCC(CO)CC2)cc1` gave a melting point of 138 to 140 °C.

The compound `NNC(=O)c1ccc(F)cc1Cl` returned a melting point of 161 to 163 °C.

The compound `O=C(O)CC1C(=O)Nc2ccccc21` (stereo not drawn) had a melting point of 214 to 216 °C.

Consider `Nc1cccc(CN2C(=O)CNC2=O)c1`, for which the melting point lay in the range of 159 to 161 °C.

On to `O=Cc1ccc(-c2ccc(F)cc2)o1`, for which the melting point is 79 to 81 °C.

`FC(F)(F)c1cccc2c(Cl)ncnc12` had a melting point of 144 to 146 °C.

The compound `O=S1CCCNc2ccccc21` (stereo not drawn) returned a melting point of 122 to 124 °C.

On to `NCc1cccc(NC(=O)Cn2cccn2)c1`, for which the melting point is 113 to 115 °C.

On to `CC(C(=O)O)S(C)(=O)=O` (stereo not drawn), for which the melting point fell in the range of 86 to 88 °C.

In the case of `O=C1NC(=O)C(CCS)N1` (stereo not drawn), the melting point fell in the range of 133 to 135 °C.

The compound `CCOC(=O)/C(=C(/O)C(C)Cl)c1nc(C)cs1` (stereo not drawn) displayed a melting point of 123 to 125 °C.

The compound `Nc1ccc(-c2ncco2)cc1` displayed a melting point of 104 to 106 °C.

The compound `CC(C)c1cccc(C(C)C)c1NCCO` had a melting point of 72 to 74 °C.

As to `Nc1ncc(Cc2cccc(Cl)c2)s1`, the melting point was in the range of 99 to 101 °C.

The compound `O=C1CCC2(CCN1)OCCO2` returned a melting point of 101 to 103 °C.

Take `Nc1ccn(Cc2ccccc2)n1`: the melting point lay within 56 to 58 °C.

`Cc1ccc(C(=O)NC(C(=O)O)C(C)C)cc1` (stereo not drawn): the melting point lay within 155 to 157 °C.

`NC(C(=O)O)c1cccc(Br)c1` (stereo not drawn) yielded a melting point of 221 to 223 °C.

In the case of `COc1ccc(CCc2nnc(N)o2)cc1`, the melting point was 216 to 218 °C.

Compound `CCNC(=O)Nc1cc(F)ccc1N` returned a melting point of 147 to 149 °C.

Compound `CCOC(=O)c1cc(Cl)ccc1[N+](=O)[O-]` came in with a melting point of 37 to 39 °C.

The compound `CCOC(=O)c1ccc(Br)c(S(=O)(=O)Cl)c1` registered a melting point of 93 to 95 °C.

Turning to `CCOC(=O)c1c(CCCO)cnc2nc(C(=O)OC)nn12`, the melting point lay in the range of 86 to 88 °C.

Turning to `CC(NC(=O)c1cccs1)C(=O)O` (stereo not drawn), the melting point lay in the range of 163 to 165 °C.

As to `CC(C)(C)OC(=O)N1CCN2C(=O)C(=O)NCC2C1` (stereo not drawn), the melting point is 222 to 224 °C.

The compound `O=C(CCl)N1CCc2[nH]c3ccccc3c2C1` came in with a melting point of 188 to 190 °C.

As for `CCC(=O)c1cc(F)cc(Br)c1`, the melting point lay in the range of 29 to 31 °C.

For `CCOC(=O)N1CCNC(=O)CC1`, the melting point was 103 to 105 °C.

The compound `Nc1ccc2[nH]c(CC3CCCCC3)nc2c1` registered a melting point of 267 to 269 °C.

`COc1ccc(C(C)=O)cc1CC#N`: the melting point was 111 to 113 °C.

Regarding `Cn1nnnc1-c1cccc(S(N)(=O)=O)c1`, the melting point lay within 168 to 170 °C.

In turn, `CCc1cc2c(Cl)ncnc2s1` displayed a melting point of 55 to 57 °C.

Turning to `Cc1csc(SCc2ccccc2C(=O)O)n1`, the melting point was in the range of 159 to 162 °C.

As to `O=C(CC1(C(=O)O)CCCC1)N1CCOCC1`, the melting point was in the range of 150 to 152 °C.

Regarding `Cc1cc(=O)[nH]c2c1cnn2C1CCCC1`, the melting point is 259 to 261 °C.

The compound `Cc1ccsc1-c1nnc(S)o1` yielded a melting point of 211 to 213 °C.

The compound `Cc1c(C(=O)NN)oc2ccccc12` registered a melting point of 139 to 141 °C.

In turn, `CCc1cccc(CC)c1Nc1nnc(S)s1` displayed a melting point of 165 to 167 °C.

The compound `CC1C=C(C(=O)O)CC1` (stereo not drawn) registered a melting point of 33 to 35 °C.

On to `O=C(O)CN1C(=O)c2cccnc2C1=O`, for which the melting point was 239 to 241 °C.

`CCc1nsc(S)n1` came in with a melting point of 144 to 146 °C.

In turn, `CN(C)C(=O)CO` gave a melting point of 32 to 34 °C.

Compound `NNC(=O)Cc1cn2ccsc2n1` showed a melting point of 97 to 101 °C.

Compound `CCCCS(=O)(=O)NCC(=O)O` came in with a melting point of 65 to 67 °C.

Consider `C1=CNc2cccc(=C3N=c4ccncc4=N3)c2=C1`, for which the melting point is 316 to 318 °C.
